Reference: ChEMBL document CHEMBL4229348, “Structure-activity relationship studies of ultra-short peptides with potent activities against fluconazole-resistant Candida albicans” (Eur J Med Chem, 2018)
In brackets after ≈: the same amount, converted by molar mass. Square brackets hold non-standard residues; d marks the D form. Peptide text beside a SMILES is read from it. Lys(Me2) = CN(C)CCCC[C@H](N)C(=O)O; tBuAla = CC(C)(C)C[C@H](N)C(=O)O

Tests used:
[1] = tested on: Candida albicans; assay: Antifungal activity against fluconazole-resistant Candida albicans ATCC 64550 after overnight incubation by CLSI broth microdilution method; assay type: functional
[2] = Retention time of the compound at 0.4 mM by HPLC analysis; assay type: physicochemical; settings: 400 µM
[3] = tested on: Candida albicans; assay: Antifungal activity against fluconazole-resistant Candida albicans ATCC MYA-573 after overnight incubation by CLSI broth microdilution method; assay type: functional
[4] = tested on: Candida albicans; assay: Antifungal activity against fluconazole-resistant Candida albicans ATCC 64124 after overnight incubation by CLSI broth microdilution method; assay type: functional
[5] = tested on: Candida albicans; assay: Antifungal activity against fluconazole-resistant Candida albicans ATCC 96901 after overnight incubation by CLSI broth microdilution method; assay type: functional
[6] = tested on: Candida albicans; assay: Antifungal activity against fluconazole-resistant Candida albicans ATCC 200955 after overnight incubation by CLSI broth microdilution method; assay type: functional
[7] = tested on: Candida albicans; assay: Antifungal activity against fluconazole-resistant Candida albicans NUH-K6004 after overnight incubation by CLSI broth microdilution method; assay type: functional
[8] = tested on: Candida albicans; assay: Antifungal activity against fluconazole-resistant Candida albicans TTSH-CALB01 after overnight incubation by CLSI broth microdilution method; assay type: functional
[9] = tested on: Candida albicans; assay: Antifungal activity against fluconazole-resistant Candida albicans TTSH-CALB02 after overnight incubation by CLSI broth microdilution method; assay type: functional

Question: For H-LKLKLKLKLK-NH2, which MIC [1] is on record?
Answer: 3.13 µM

Question: What about the Retention_time [2] of the same compound?
Answer: 14.5 min

Question: What does the source list for H-AKAKAKAK-NH2?
Answer: MIC [1]: > 100 µM; Retention_time [2]: 1.9 min

Question: For H-KLKLKLKLK-NH2, which MIC [1] is on record?
Answer: 3.13 µM

Question: What about the Retention_time [2] of the same compound?
Answer: 13.6 min

Question: With `NCCCC[C@H](NC(=O)[C@H](CC1CCCCC1)NC(=O)[C@H](CCCCN)NC(=O)[C@H](CC1CCCCC1)NC(=O)[C@H](CCCCN)NC(=O)[C@H](CC1CCCCC1)NC(=O)[C@H](CCCCN)NC(=O)[C@@H](N)CC1CCCCC1)C(N)=O` (HELM PEPTIDE1{[Cha].K.[Cha].K.[Cha].K.[Cha].K.[am]}$$$$V2.0) as the compound, how does the MIC [1] read?
Answer: > 100 µM

Question: And the Retention_time [2]?
Answer: 17.9 min

Question: For H-LKLKLK-NH2, which MIC [1] is on record?
Answer: 100 µM

Question: And the Retention_time [2]?
Answer: 12.8 min

Question: Which MIC [1] does the source give for `CC(C)(C)C[C@H](NC(=O)[C@H](CCCCN)NC(=O)[C@H](CC(C)(C)C)NC(=O)[C@H](CCCCN)NC(=O)[C@H](CC(C)(C)C)NC(=O)[C@H](CCCCN)NC(=O)[C@@H](N)CC(C)(C)C)C(=O)N[C@@H](CCCCN)C(N)=O` (H-[tBuAla]K[tBuAla]K[tBuAla]K[tBuAla]K-NH2) here?
Answer: 3.13 µM (≈ 3.25 µg/mL)

Question: And the Retention_time [2]?
Answer: 15.6 min

Question: With `CC[C@H](NC(=O)[C@H](CCCCN)NC(=O)[C@H](CC)NC(=O)[C@H](CCCCN)NC(=O)[C@H](CC)NC(=O)[C@H](CCCCN)NC(=O)[C@@H](N)CC)C(=O)N[C@@H](CCCCN)C(N)=O` (HELM PEPTIDE1{[Abu].K.[Abu].K.[Abu].K.[Abu].K.[am]}$$$$V2.0) as the compound, how does the MIC [1] read?
Answer: > 100 µM

Question: And the Retention_time [2]?
Answer: 6 min

Question: Which results are given for `CC(C)C[C@@H](N)C(=O)N[C@H](CCCCN)C(=O)N[C@H](CC(C)C)C(=O)N[C@H](CCCCN)C(=O)N[C@H](CC(C)C)C(=O)N[C@H](CCCCN)C(=O)N[C@H](CC(C)C)C(=O)N[C@H](CCCCN)C(N)=O`?
Answer: MIC [1]: 3.13 µM (≈ 3.07 µg/mL); Retention_time [2]: 13.8 min

Question: For H-WKWKWKWK-NH2, which MIC [1] is on record?
Answer: > 100 µM

Question: What about the Retention_time [2] of the same compound?
Answer: 15.9 min

Question: For H-IAIKIKIK-NH2, which MIC [1] is on record?
Answer: 12.5 µM

Question: What about the Retention_time [2] of the same compound?
Answer: 13.7 min

Question: With `OC(Cn1cncn1)(Cn1cncn1)c1ccc(F)cc1F` [FLUCONAZOLE] as the compound, how does the MIC [1] read?
Answer: > 100 µM

Question: What about the MIC [3] of the same compound?
Answer: > 100 µM

Question: And the MIC [4]?
Answer: > 100 µM

Question: What about the MIC [5] of the same compound?
Answer: > 100 µM

Question: And the MIC [6]?
Answer: > 100 µM

Question: And the MIC [7]?
Answer: > 100 µM

Question: And the MIC [8]?
Answer: > 100 µM

Question: What about the MIC [9] of the same compound?
Answer: > 100 µM

Question: For `CC(C)C[C@H](NC(=O)[C@H](CCCCN)NC(=O)[C@@H](N)CC(C)C)C(=O)N[C@@H](CCCCN)C(N)=O` (H-LKLK-NH2), which MIC [1] is on record?
Answer: > 100 µM

Question: And the Retention_time [2]?
Answer: 11 min

Question: For `CCC[C@H](NC(=O)[C@H](CCCCN)NC(=O)[C@H](CCC)NC(=O)[C@H](CCCCN)NC(=O)[C@H](CCC)NC(=O)[C@H](CCCCN)NC(=O)[C@@H](N)CCC)C(=O)N[C@@H](CCCCN)C(N)=O` (HELM PEPTIDE1{[Nva].K.[Nva].K.[Nva].K.[Nva].K.[am]}$$$$V2.0), which MIC [1] is on record?
Answer: 6.25 µM (≈ 5.79 µg/mL)

Question: What about the Retention_time [2] of the same compound?
Answer: 12 min

Question: With H-ILRWPWWPWRRK-NH2 [OMIGANAN] as the compound, how does the MIC [1] read?
Answer: 50 µM

Question: What does the source list for H-EKEKEKEK-NH2?
Answer: MIC [1]: > 100 µM; Retention_time [2]: 1.9 min

Question: Which results are given for H-LKLKLKL-NH2?
Answer: MIC [1]: 50 µM; Retention_time [2]: 14.5 min

Question: What does the source list for H-KKKKKKKK-NH2?
Answer: MIC [1]: > 100 µM; Retention_time [2]: 2 min

Question: With H-GKGKGKGK-NH2 as the compound, how does the MIC [1] read?
Answer: > 100 µM

Question: What about the Retention_time [2] of the same compound?
Answer: 1.6 min

Question: With H-AKIKIKIK-NH2 as the compound, how does the MIC [1] read?
Answer: 6.25 µM

Question: And the Retention_time [2]?
Answer: 12.4 min

Question: With `CCCCCCCCCCCCCCCC(=O)N[C@H](C(=O)N[C@@H](CCCCN)C(=O)N[C@H](C(=O)N[C@@H](CCCCN)C(=O)N[C@H](C(=O)N[C@@H](CCCCN)C(=O)N[C@H](C(=O)N[C@@H](CCCCN)C(N)=O)[C@@H](C)CC)[C@@H](C)CC)[C@@H](C)CC)[C@@H](C)CC` (HELM PEPTIDE1{[CCCCCCCCCCCCCCCC(=O)[*:2]].I.K.I.K.I.K.I.K.[am]}$$$$V2.0) as the compound, how does the MIC [1] read?
Answer: > 100 µM

Question: What about the Retention_time [2] of the same compound?
Answer: 23.5 min

Question: For H-IRIRIRIR-NH2, which MIC [1] is on record?
Answer: 12.5 µM

Question: What about the Retention_time [2] of the same compound?
Answer: 13.9 min

Question: Which results are given for H-IK(Ac)IK(Ac)IK(Ac)IK(Ac)-NH2?
Answer: MIC [1]: > 100 µM; Retention_time [2]: 22.9 min

Question: Which results are given for `CCCCCCCCCCCC(=O)N[C@H](C(=O)N[C@@H](CCCCN)C(=O)N[C@H](C(=O)N[C@@H](CCCCN)C(=O)N[C@H](C(=O)N[C@@H](CCCCN)C(=O)N[C@H](C(=O)N[C@@H](CCCCN)C(N)=O)[C@@H](C)CC)[C@@H](C)CC)[C@@H](C)CC)[C@@H](C)CC` (HELM PEPTIDE1{[CCCCCCCCCCCC(=O)[*:2]].I.K.I.K.I.K.I.K.[am]}$$$$V2.0)?
Answer: MIC [1]: > 100 µM; Retention_time [2]: 20.8 min

Question: For H-LKLKLKLKL-NH2, which MIC [1] is on record?
Answer: 3.13 µM

Question: And the Retention_time [2]?
Answer: 15.1 min

Question: Which MIC [1] does the source give for H-KIKIKIKI-NH2 here?
Answer: 3.13 µM

Question: And the Retention_time [2]?
Answer: 14 min

Question: What does the source list for `CC(C)C[C@H](NC(=O)[C@@H](N)CCCCN)C(=O)N[C@@H](CCCCN)C(N)=O` (H-Lys-Leu-Lys-NH2)?
Answer: MIC [1]: > 100 µM; Retention_time [2]: 2.4 min

Question: Which results are given for `CC[C@H](C)[C@H](N)C(=O)N[C@@H](CCCCN(C)C)C(=O)N[C@H](C(=O)N[C@@H](CCCCN(C)C)C(=O)N[C@H](C(=O)N[C@@H](CCCCN(C)C)C(=O)N[C@H](C(=O)N[C@@H](CCCCN(C)C)C(N)=O)[C@@H](C)CC)[C@@H](C)CC)[C@@H](C)CC` (H-I[Lys(Me2)]I[Lys(Me2)]I[Lys(Me2)]I[Lys(Me2)]-NH2)?
Answer: MIC [1]: 100 µM (≈ 109 µg/mL); Retention_time [2]: 14 min
